These results are taken from a melting point compilation (Tetko et al.; mined from patent text by program, amines drawn as free bases though some values may be those of a salt).

Consider `O=C1OCCN1CCN1C(=O)C2(COc3cc4c(cc32)CCO4)c2ccccc21` (centres undefined), for which the melting point was 185 to 186 °C.
As for `Clc1ccc(Nc2nnc(Cc3ccncc3)c3ccccc23)cc1Cl`, the melting point is 249 to 250 °C.
`CC(=O)C(=Cc1cccc([N+](=O)[O-])c1)C(C)=O` had a melting point of 92 to 95 °C.
For `O=C(OCc1ccccc1)C(C(=O)OCc1ccccc1)n1cccc1C(=O)C(Cl)(Cl)Cl` the value was 74 to 76 °C.
With `Cc1cc(Cl)n2nc(SCc3ccccc3)nc2c1` the figure was 108 to 110 °C; with `CN(C[C@H](O)c1cccc(OCC(=O)O)c1)c1cnc(-c2ccccc2)c(-c2ccccc2)n1`, 158 to 159 °C; with `CCCCOc1cc(/C=C(\OCC)C(=O)O)ccc1OCCc1ccc(OS(C)(=O)=O)cc1`, 117 °C.
For `Oc1ccc2c(c1)OCC(N1CCC(O)(c3ccc(F)cc3)CC1)C2O` (centres undefined) the value was 159 to 160 °C; for `O=c1[nH]cnc(C(F)(F)F)c1Br`, 226 to 227 °C; for `OCc1sc2cc(Br)ccc2c1Cl`, 117 to 118 °C.
For the molecule `NC(=O)c1ccccc1N1CCC1COc1cncc(F)c1` (centres undefined), the melting point fell in the range of 71 to 72 °C.
For `O=S(=O)(CCNc1ccc(Cl)c(C(F)(F)F)c1)NCCCOc1cccc(CN2CCCCC2)c1` the value was 115 to 120 °C.
With `COC(=O)c1cccn2ccnc12` the figure was 67 to 69 °C.
Molecule `c1ccc2c(c1)CSSC2` gave a melting point of 77 to 78 °C.
In turn, `COc1cc(OCC2CCCCC2)ccc1/C=C/c1cc(/C=C/c2ccc3cc[nH]c3c2)[nH]n1` gave a melting point of 104 to 108 °C.
With `Cc1nc(Nc2ccccc2)sc1C(=O)c1ccc(N)c([N+](=O)[O-])c1` the figure was 235 to 239 °C; with `Cn1ncc(/C=C/C(=O)Nc2ccc(OCc3cscn3)cc2)c1-c1ccc(F)cc1`, 171 to 172 °C; with `CS(=O)(=O)NCC(=O)CCN1CCC(C2c3ncc(Br)cc3CCc3cc(Cl)cc(Cl)c32)CC1` (single isomer, unassigned; (+)), 110 to 113 °C.
For `O=C1C2=C(SCCS2)C(O)N1c1ccc2c(Cl)ccnc2n1` (centres undefined) the value was 300 to 305 °C; for `CCCCCCCC1=CC(=O)OC1(O)CNc1ccccc1` (centres undefined), 172 to 174 °C; for `O=C(CO)Nc1ccc(O)cc1`, 141 to 143 °C.
For `CCc1ccc(Nc2nc3cc(NC(=O)c4cc(F)cc(C(F)(F)F)c4)ccc3o2)cc1` the value was more than 250 °C; for `CC(C)(C)c1ccc(S(=O)(=O)n2c(CCCC(=O)O)cc3nc(Cl)ccc32)cc1`, 168 °C.
The molecule `Cc1nn(C)c2nc(N)[nH]c(=O)c12` registered a melting point of more than 300 °C.
With `N#Cc1ccccc1-c1ccc2[nH]c(Cc3ccccc3)nc2c1` the figure was 133 to 140 °C; with `CC1CNc2c(cnc3cc(Cl)ccc23)O1` (centres undefined), 239 to 241 °C; with `c1ccc(Nc2nc(NC3CCC3)c3[nH]cnc3n2)cc1`, 312 to 314 °C.
With `C=C(C)Cc1c(C)c(NC(C)=O)cc(C)c1O` the figure was 183 to 185 °C; with `CC1CC(=O)NN=C1c1ccc(NC(=O)C2CC2(C)C)cc1` (centres undefined), 222 to 223 °C; with `CSC1=CC2=CN(O)NN2C(Cl)=N1`, 256 to 257 °C.
With `CC(C)(C)NCC(O)COc1ccccc1Cc1cccc2[nH]ccc12` (centres undefined) the figure was 78 °C; with `N#Cc1ccc(-c2ccc(-c3ccc(C#N)nc3)o2)cc1`, 276 to 277 °C; with `CCOP(=O)(OCC)c1c(-c2c(OC)ccc3ccccc23)c(C)c2c(c1-c1ccccc1)COC2`, 54.1 to 56 °C.
Molecule `Cc1ccccc1N1CCN(CCn2c(=N)sc3cc(OC(F)(F)F)ccc32)CC1` showed a melting point of 135 °C.
Consider `O=[N+]([O-])c1c(O)c(O)cc2c1C(=NO)CC2`, for which the melting point is 200 to 201 °C.
For `NC(=NO)c1ccno1` the value was 146 to 148 °C.
With `NC(CO)(CO)CCc1ccc(C(=O)CCCCc2ccccc2)cc1` the figure was 126 to 127 °C; with `O=C(NC(Cc1ccccc1)C(=O)O)OCc1ccc(C#Cc2ccccc2)cc1` (centres undefined), 172 to 173 °C.
With `CN1C(=O)C(Br)=C(c2cn(C(=O)OC(C)(C)C)c3ccc(OCc4ccccc4)cc23)C1=O` the figure was 155 °C.
The molecule `Cc1ccc(C)n1CCNC(=O)CN(C)C` yielded a melting point of 63 to 65 °C.
With `CC1(C)OC(=S)Nc2ccc(-c3cccc([N+](=O)[O-])c3)cc21`, the melting point fell in the range of 224 to 226 °C.
For `Cc1nn(-c2ccccn2)c2[nH]c3c(c(=O)c12)CCCC3` the value was 172 to 173 °C; for `CCCCCC1CCC(c2ccc(-c3cc(F)c(C(F)(F)Oc4cc(F)c(C(F)(F)F)c(F)c4)c(F)c3)c(F)c2)CC1` (centres undefined), 74 °C.
For `CCC1(C)OC(c2ccc(S(C)(=O)=O)cc2)=C(c2ccccc2)C1=O` (centres undefined) the value was 115 to 117 °C; for `CC(=O)c1ccc2c(c1)ncn2-c1cccc(-c2cccnc2)c1`, 195 to 197 °C; for `FC(F)(F)c1snc(-c2c(Cl)cc(Cl)c3nc(C4CC4)oc23)c1Cl`, 110 to 111 °C.
With `CC1=C(C(=O)OCc2ccccc2)C2CCC(CCOC(=O)c3ccc(Br)cc3)N2C(=NC(=O)c2ccc(Br)cc2)N1` (centres undefined) the figure was 175 to 176 °C.
For the molecule `CCOC(=O)C1CCN(C(=O)/C=C/c2ccc(Sc3ccc4c(c3)OCCO4)c([N+](=O)[O-])c2)CC1`, the melting point lay within 78 to 88 °C.
With `Cc1ncn(C(=O)Nc2ccccc2)c1Cl` the figure was 112 to 114 °C; with `CCOCc1nc2c(N)nc3cc(OCCCCCCNC(C)=O)ccc3c2n1CC(C)(C)NS(C)(=O)=O`, 169 to 171 °C.
With `Nc1c(F)c(Oc2ccc(Cl)c(Cl)c2)nc(C(=O)O)c1Cl` the figure was 156 to 160 °C.
For `COc1cc2c(cc1OCc1ccccc1)C(C#N)(Sc1ccccc1)C2` (centres undefined) the value was 109 to 110 °C; for `N#Cc1ccc(CN2CCc3ccc(C(=O)CCCC4CCN(Cc5ccccc5Cl)CC4)cc3CC2)cc1`, 118 to 119 °C; for `COc1cc(Br)c(Nc2nc(C)nc(-c3ccccc3C(F)(F)F)c2[N+](=O)[O-])c(OC)c1`, 147 to 148 °C.
Molecule `COc1ccc(Cn2nnnc2C(=O)Nc2cccc(N3CCCCC3)c2C#N)cc1` registered a melting point of 166 to 168 °C.
For `O=C(CCCCCBr)c1cc2c3c(c1)CCC(=O)N3CCC2` the value was 52 to 53 °C; for `CC1CCCC(C)N1S(=O)(=O)N[C@@H](Cc1ccc(Oc2nccc3cnccc23)cc1)C(=O)O` (some centres undefined), 151 °C.
For `CCOC(=O)CCCCC=Cc1cccc(Oc2cccc(C=O)c2)c1` the value was 142 to 145 °C; for `O=Cc1ccc(-c2ccc(-c3ccc(C=O)o3)nc2)cc1`, 217 to 219 °C; for `COc1cc(OC)c(S(=O)(=O)Cl)cc1-c1nc2nccnc2[nH]1`, 294 to 296 °C.
For `CS(=O)(=O)Nc1ccc(C(O)CNC2CCN(c3ccc(CC4SC(=O)NC4=O)cc3)CC2)cn1` (centres undefined) the value was 57 to 59 °C; for `CN(C)C(=S)Oc1ccc(C(F)(F)F)cc1C(=O)c1ccc(C#N)cc1`, 142 °C.
Regarding `Nc1ncc(Cc2ccc3ccccc3c2)c(N)n1`, the melting point was in the range of 231 to 233 °C.
For `O=C(Nc1ccc(C(F)(F)F)cc1)C1=NN(c2ccc(Cl)cc2)C(c2ccco2)C1` (centres undefined) the value was 167 to 171 °C.
`COCCNC(=O)c1cc(C(=O)O)cc([N+](=O)[O-])c1`: the melting point lay in the range of 203 to 207 °C.
For `COc1ccc(Cc2ccc3c(c2)OCO3)cc1C` the value was 95 °C; for `COCCNC(=O)C(NC(=O)OCc1ccccc1)c1ccc2c(c1)CCO2` (centres undefined), 90 to 110 °C.
For `CC1(C)Sc2cc(Cl)ccc2C2=NN(C(=O)Nc3ccc(C(F)(F)F)cc3)CC21` (centres undefined) the value was 200 to 202 °C.
With `Cn1c2c(c3ccccc31)C(=O)C(CNC1=NCCN1)CS2` (centres undefined) the figure was 245 to 247 °C; with `O=C(Nc1ccc(-n2nc(C(F)(F)F)cc2C(F)(F)F)cc1)c1ccc(I)cc1`, 196 to 198 °C.
`CC(C)(C)OC(=O)NCC(O)c1ccsc1` (centres undefined) registered a melting point of 103 to 105 °C.
With `O=C1C2CC(c3ccc([N+](=O)[O-])cc3)(C2)C(=O)N1CC1CCCCC1` the figure was 191 to 194 °C; with `CC(C)OC(=O)c1cc(Cl)c(Cl)c(-c2ccc(Cl)cc2)n1`, 133 to 135 °C.
With `O=C(O)c1ccc2c(c1)C(=O)c1cc3c(cc1OC2)OCO3` the figure was 320 to 321 °C.
`NC(=S)c1ncn(C2OC(COS(N)(=O)=O)C(O)C2O)n1` (centres undefined) came in with a melting point of 173 to 175 °C.
`Cc1cc2nc3c4cc([N+](=O)[O-])ccc4n(CCN(C)C)c3nc2cc1C` came in with a melting point of 219 °C.
With `COc1ccc2c(c1)c1c(n2C(=O)c2ccccc2)CCC(C(=O)O)C1` (centres undefined) the figure was 216 to 219 °C; with `CC(=O)c1ccc(F)c(N(C)C(C)=O)c1`, 75.5 to 76.5 °C; with `CC(C)(C)[Si](C)(C)C(F)(F)F`, 52 to 54 °C.
Consider `CCNc1nc(Cl)cc(NC2CC2)n1`, for which the melting point lay in the range of 86 to 88 °C.
With `CC(=O)OCCn1nc(-c2cc(C(C)(C)C)c(O)c(C(C)(C)C)c2)c2cccnc21` the figure was 115 to 116 °C; with `CCCCCCc1cccc(-c2cn(C)cc(-c3ccccc3)c2=O)c1`, 93 to 95 °C.
With `COc1cc(Nc2nc3cccc(-c4cccc(CNC(C)=O)c4)c3o2)cc(OC)c1OC` the figure was 203 to 204 °C.
For `Cc1ccc(C=NNc2ncnc3ccccc23)cc1` the value was 211 to 214 °C; for `OC(C1=NCCN1)(c1ccccc1)c1ccccn1` (centres undefined), 152 to 154 °C.
Consider `CCOC(=O)CC(=O)c1ccc(OCc2ccccc2)cc1C`, for which the melting point is 59 to 60 °C.
With `CC(C)C[C@@H](C(=O)O)N(C)C(=O)OC(C)(C)C` the figure was 53 to 55 °C; with `CC(C)(C)c1cc(NC(=O)NNC(=O)c2ccc([N+](=O)[O-])cc2)cc(C(C)(C)C)c1O`, 163 to 164 °C; with `CO/N=C(/C)c1cccc(NC(=O)NCC(=O)N(CC(=O)N(C)c2ccccc2)c2ccccc2)c1`, 165 °C.
